# Tested on: B16-F10 melanoma cells
# Test: melanin content analysis in α-MSH-treated B16-F10 melanoma cells
# Type: cell-based
# Settings: co-treatment with 500 nM α-MSH; positive control, concentration not given; FIG. 6
# Protocol: Further, in the present embodiment, an ability of the Hibiscus sabdariffa L. ‘TAITUNG NO. 6’ extract to inhibit melanin production is evaluated by a melanin content analysis, and a method thereof is as follows. B16-F10 melanoma cells (1×10^5) are seeded in a 24-well culture plate and treated with 500 nM α-melanocyte stimulating hormone (α-MSH) at 37° C. for 24 hours. Then, these cells are treated with various concentrations of the Hibiscus sabdariffa L. ‘TAITUNG NO. 6’ extract for 48 hours, and are treated with trypsin after being rinsed with PBS. A cell pellet is collected by centrifugation at 10,000 g for 20 minutes at a room temperature, and is then lysed with 1N NaOH for 60 minutes. The melanin content is analyzed by comparing an absorbance value of a test sample at 405 nm with a standard curve obtained by using a synthetic melanin.
structure (smiles),measurement,value
O=c1cc(CO)occ1O [kojic acid],melanin content of the melanoma cells,significantly decreased

# Reference: US20250041373A1, “EXTRACTION METHOD OF HIBISCUS SABDARIFFA L. TAITUNG NO. 6, HIBISCUS SABDARIFFA L. TAITUNG NO. 6 EXTRACT USING THE SAME, AND USES THEREOF” (WEL-BLOOM BIO-TECH CORPORATION, priority 2023, published 2025)
